Data as given in patent US8728787B2, “Fungal laccases and uses thereof” (Academia Sinica, priority 2010, dated 2014).
Like-named read-outs stand apart in the source and are kept apart here. Values belong to the molecule of their own block, whether it stands above or below them.

How the values were obtained:
[1] = tested on: Lentinus sp. laccase, wild type, purified from culture; assay: Laccase kinetics of purified Lentinus sp. laccase; type: biochemical
Description: All chemicals used in this study were obtained from Merck (Darmstadt, Germany) or Sigma-Aldrich (St. Louis, Mo. USA). All spectrophotometric measurements were performed using the Beckman DU 640 spectrophotometer (Beckman Coulter, USA).
Kinetic parameters Km and Vmax were determined as follows. […] The oxidation reactions of guaiacol and 2,6-DMP were monitored by determining OD436 values (ε=6,400 M^−1cm^−1) and OD468 values (ε=49,600 M^−1 cm^−1), respectively. The kinetic parameters were determined by nonlinear regression analysis (ENZFITTER software program, Elsevier-Biosoft, Cambridge, UK) using the Michaelis-Menten model.
Kinetic parameters were determined following conventional methods. See also Example 1 above.

[2] = tested on: Trametes C30 laccase LAC2; conditions: ABTS as substrate, optimum 55 °C at pH 5.7, cited from earlier work
[3] = tested on: Agaricus blazei laccase; conditions: ABTS as substrate, optimum 25 °C at pH 2.3, cited from earlier work
[4] = tested on: Cerrena unicolor laccase; conditions: ABTS as substrate; optimum 70 °C at pH 3.5; cited from earlier work
[5] = tested on: Pleurofus sajor-caju laccase; conditions: ABTS as substrate, optimum 40 °C at pH 5.0, cited from earlier work
[6] = tested on: Trametes pubescens laccase LAP2; conditions: ABTS as substrate, optimum 25 °C at pH 4.0, cited from earlier work
[7] = tested on: Panus tigrinus laccase; conditions: ABTS as substrate, optimum 30 °C at pH 3.5, cited from earlier work
[8] = tested on: Panus(Lentinus)tigrinus 8/18 laccase; conditions: ABTS as substrate; cited from earlier work
[9] = tested on: Trametes versicolor laccase; conditions: ABTS as substrate, optimum 55 °C at pH 4.0, cited from earlier work
[10] = tested on: Pycnoporus sanguineus laccase; conditions: ABTS as substrate, optimum 25 °C at pH 3.0, cited from earlier work
[11] = Laccase activity in culture media of recombinant P. pastoris; type: biochemical; conditions: expressed in P. pastoris X-33; 13-26 day (Lcc1-3) or 18-day (LccA) cultivation
Source text: The EasySelect™ Pichia Expression System (Invitrogen) was used in this study for expression of Lcc1, Lcc2, and Lcc3 laccases. cDNA fragments coding for these three laccases were cloned into Pichia expression vector pPICZA or pPICZaB via EcoRI and NotI restriction sites. More specifically, the lcc1 gene coding for Lcc1 precursor (including a signal peptide sequence) was cloned into pPICA to generate expression plasmid pPICZA-lcc1 and the lcc2 and lcc3 genes coding for mature Lcc2 and Lcc3 were cloned into pPICZaB to obtain expression plasmids pPICZaB-lcc2 and pPICZaB-lcc3, respectively. The three expression plasmids were introduced into P. pastoris X-33 cells following the method described in Invitrogen's protocol. Positive transformants were cultured in BMMY (1% yeast extract, 2% peptone, 100 mM potassium phosphate, pH 6.0, 1.34% yeast nitrogen base, 0.00004% biotin, and 0.5% methanol) at 25° C., 200 rpm for 12-26 days. Methanol was added to the culture media daily to reach a final concentration of 0.5%. During the cultivation, 1 ml of the supernatant was collected at various time points. The laccase activity and cell density in the supernatant were determined following the method described above or routine procedures.
pPICZ-lccA was introduced into Pichia pastoris strain X-33 host cells (Invitrogen) and positive transformants were selected for LccA expression. Briefly, a positive transformant was cultured in BMMY medium containing 1% yeast extract, 2% peptone, 1.34% yeast nitrogen base, 0.00004% biotin, and 0.5% methanol at 25° C. and 200 rpm for 20 days. Methanol was daily added to reach a final concentration of 0.5%. Within the 20-day cultivation, 1 ml of the supernatant was collected; laccase activity and cell growth were determined.

[12] = substrate: COc1cccc(OC)c1O; assay: Laccase kinetics of purified Cerrena sp. WR1 Lcc3; type: biochemical; conditions: other: 2,6-DMP as substrate, 50 mM citrate buffer, 70 °C, pH 3.5, pH 3.5
[13] = substrate: COc1ccccc1O; assay: Laccase kinetics of purified Cerrena sp. WR1 Lcc3; type: biochemical; conditions: other: guaiacol as substrate, 50 mM citrate buffer, 70 °C, pH 4.5, pH 4.5
[14] = substrate: CCn1c(=NN=c2sc3cc(S(=O)(=O)O)ccc3n2CC)sc2cc(S(=O)(=O)O)ccc21; assay: purified protein, by the assay type; conditions: other: ABTS as substrate, 50 mM citrate buffer, 50 °C, pH 3.0
[15] = 2,6-DMP as substrate, optimum 60 °C at pH 3.5
[16] = guaiacol as substrate, optimum 70 °C at pH 5.0
[17] = ABTS as substrate, optimum 70 °C at pH 2.5

Molecule: COc1cccc(OC)c1O [2,6-DMP, 2,6-dimethoxyphenol]
Km [1, 15]: 434 µM
kcat [1, 15]: 121.9 s⁻¹

Km [1, 16]: 524 µM
kcat [1, 16]: 305.5 s⁻¹
Molecule: COc1ccccc1O [guaiacol]

Km [1, 17]: 8.4 µM
kcat [1, 17]: 2016.5 s⁻¹
Molecule: CCn1c(=NN=c2sc3cc(S(=O)(=O)O)ccc3n2CC)sc2cc(S(=O)(=O)O)ccc21 [ABTS, 2,2′-azino-bis-(3-ethylbenzthiazoline-6-sulfonic acid)]
Km ([2]; Table 2): 536 µM
Km ([2]; Table 4): 536 µM
kcat [2]: 683.33 s⁻¹
Km ([3]; Table 2): 63 µM
Km ([3]; Table 4): 63 µM
kcat [3]: 21 s⁻¹
Km [4]: 800 µM
Km ([5]; Table 2): 56 µM
Km ([5]; Table 4): 56 µM
kcat [5]: 520.24 s⁻¹
Km ([6]; Table 2): 43 µM
Km ([6]; Table 4): 43 µM
kcat [6]: 350 s⁻¹
Km ([7]; Table 2): 31 µM
Km ([7]; Table 4): 31 µM
kcat [7]: 185.69 s⁻¹
Km [8]: 33.4 µM
Km ([9]; Table 2): 37.3 µM
Km ([9]; Table 4): 37.3 µM
kcat [9]: 351.3 s⁻¹
Km ([10]; Table 2): 77 µM
Km ([10]; Table 4): 77 µM
kcat [10]: 1.155 s⁻¹

B1: Lcc1: laccase from Cerrena sp. WR1, GenBank accession no. GQ899201; SEQ ID NO:1 mature, 7 precursor (protein)
chain: AIGPVTDLEITNGTISPDGYSRAAVLAGGSFPGPLITGNKSDNFQINVVNSLADSDMLKSTTVHWHGFFQKGTNWADGPAFVNQCPIATGNSFLYNFNATDQAGTFWYHSHLETQYCDGLRGPMVVYDPDDPHADLYDVDDDSTVITLADWYHTLARLGAAFPTSDATLINGLGRYSDGNTTDLAVITVESGKRYRFRLVSISCDPNFTFSIDNHTMTIIEADAVNYTPLDVDEIQIFAGQRYSFILTANQTVDNYWIRADPNVGTTGFDNGINSAILRYSGADEVEPTTNQTTSTNPLVEANLVPLDGAAAPGEAVAGGVDYALNLALAFDGTNLDFTVNGYEYTSPTVPVLLQILSGASSVDDLLPSGSIYSLPSNSTIELSIPALAVGAPHPIHLHGHTFSVVRSAGSTTYNYDNPPRRDVVSIGTATDDNVTIRFTTDNPGPWFLHCHIDFHLEAGFAVVFAEDFNDTASANTVTTEWSDLCTTYDALSSDDL
modifications: Cerrena sp
laccase activity in culture media [11]: approximately 800 U/L

B2: LccA: laccase from Lentinus sp., GenBank accession no. FJ693715; SEQ ID NO:4 mature, 10 precursor (protein)
chain: GIGPIASLVVTDAQISPDGYLRDAIVTNGVFPAPLITGRKGDHFQLNVVDSMTNHTMLKSTSIHWHGFFQKGTNWADGPAFVNQCPISSGHSFLYDFHVPDQAGTFWYHSHLSTQYCDGLRGPMVVYDPNDPHANLYDIDNDSTVITLADWYHVAAKLGPRFPLGADATLINGKGRSPATPTAALSVINVVKGKRYRFRLVSISCDPNYVFSIDNHTMTVIEADTVNTQPLAVDSIQIFAAQRYSFILNANQPVDNYWIRANPNFGNVGFTDGINSAILRYTGAALVEPSATTAPTLSNPLVETNLHPLAPMPVPGQPVSGGVDKAINFAFNFDGTDFFINGASFVPPTVPVLLQIMSGASTAQDLLPSGSVYPLPSNATIELSFPATAAAPGAPHPFHLHGHVFAVVRSAGSTTYNYNNPIWRDVVSTGTPAAGDNVTIRFSTNNPGPWFLHCHIDFHLEAGFAVVMAEDVPDIPSANPVPQAWSNLCPTYNALSSDDQ
modifications: Lentinus sp
laccase activity in culture media [11]: about 400 U/L

B3: Lcc2: laccase from Cerrena sp. WR1, GenBank accession no. GQ899202; SEQ ID NO:2 mature, 8 precursor (protein)
chain: AIGPVTDLTITNATISPDGFSRQAVLAGGVFPGPLITGNKGDNFQINVVNSLENSDMLKSTTIHWHGFFQKGTNWADGPAFVNQCPIATGNSFLYNFNADDQAGTFWYHSHLSTQYCDGLRGPMVVYDPNDPHASLYDVDDESTVITLADWYHTLARLGAAFPTADATLINGLGRYSDGTTSDLAVITVESGKRYRFRLVNISCDPNYTFSIDNHTFTVIEVDGVNHAALDVDEIQIFAGQRYSFVLTANQTVDNYWIRANPNLGTTGFDNGINSAILRYSGANETEPTTTQTTATAALSEASLVPLEDPAAPGEAVAGGVDYALNLAFAFDGANLDFTVNGETYVSPTVPVLLQILSGASSVSDLLPAGSVYSLPSNSTIELSMPGGVVGGGHPLHLHGHAFSVVRSAGSDTYNYVNPPRRDVVNIGAAGDNVTIRFTTDNPGPWFLHCHIDFHLEAGFAVVFAEDFNATASSNTVTTEWSNLCTTYDALSADDQ
modifications: Cerrena sp
laccase activity in culture media [11]: ~160 U/L

B4: Cerrena sp. WR1 laccase Lcc3, wild type (mature SEQ ID NO: 3; precursor SEQ ID NO: 9; GenBank GQ899203) (Cerrena sp. WR1) (protein)
chain: AIGPVADLHITDANVSPDGFTRPAVLAGGTFPGPLITGKQGDNFQINVIDELTDATMLKSTSIHWHGIFQKGTNWADGPSFVNQCPITTGNSFLYDFSVPDQTGTYWYHSHLSTQYCDGLRGALVIYDDNDPHKDLYDVDDETTVITLADWYHTQARLITGVPVSDATLINGLGRYLNGPTDAPLAVITVDQGKRYRFRLVSISCDPNFVFSIDNHSMTVIEVDAVNSQPLVVDSIQIFAAQRYSFILNANQSVGNYWIRANPNLGNTGFTNGINSAILRYNGAPVAEPNTTQTASTNPLNEVNLHPLVPTPVPGTPQPGGVDVVQNLVLGFSGGKFTINGVAFSPPTVPVLLQILSGTTTAQDLLPTGSIIELPLGKTVELTLAAGVLGGPHPFHLHGHTFHVVRSAGQTTPNYVDPILRDTVNTGAAGDNVTIRFTTDNPGPWFLHCHIDWHLEAGFAVVFAEGLNQTNAANPTPDAWNNLCDLYNALPAGDQ
notes: WR1 culture supernatant (Q Sepharose); precursor 516 aa with 21-residue signal peptide
Km [12]: 392.7 µM
kcat [12]: 109 s⁻¹
kcat/Km [12]: 280000 M⁻¹ s⁻¹
Km [13]: 849.1 µM
kcat [13]: 148 s⁻¹
Km [14]: 3.27 µM
kcat [14]: 934.6 s⁻¹
